The text below walks through data of patent publication US8334403B1, “C-lysine conjugates as pH-controlled, light-activated reagents for double stranded DNA cleavage and associated methods” (Florida State University Research Foundation, Inc., priority 2005, dated 2012).

The structures appear in SMILES notation. A value given as a limit tells only on which side of the number the result lay.

The subject of one data set is pBR322 plasmid DNA. Description: Plasmid relaxation assay: DNA photocleavage of supercoiled plasmid under UV irradiation. The data set is classed as biochemical. As for the experimental part:
General information. ^1H, ^13C and ^19F NMR were collected on a Varian Gemini 300 MHz NMR spectrometer and a Bruker 300 MHz NMR spectrometer. Mass spectrometry data was collected on a Jeol JMS-600H. UV spectra were recorded on a Shimadzu UV-2100. Fluorescence spectra were obtained with SPEX FluoMax spectrofluorimeter using right-angle geometry. pH was adjusted with AB 15 plus pH meter (Accument) after standardization at 25° C. All buffers were prepared and pH-adjusted at room temperature (25° C.). Plasmid DNA Photocleavage. pBR322 plasmid DNA (4,361 b/p; from BioLabs Inc., 1 μg/μL solution in 10 mM Tris-HCl (pH 8.0), and 1 mM EDTA buffer) was diluted to a concentration of 0.01 μg/μL. The solution containing cleavage agent, DNA (30 μM/bp) in 20 mM sodium phosphate buffer was incubated for 1 hour at 30° C. Samples were placed on ice at a distance of 20 cm from 200 W Hg—Xe lamp (Spectra-Physics, Laser & Photonics Oriel Instruments with long pass filter with 324 nm cut-off wavelength). Electrophoretic Analysis. The gel electrophoresis was carried out in 1×TBE buffer at 80 V using Miligel FisherBiotech Horizontal Electrophoresis System. All gels were run on 1% agarose slab gels. Before loading, the DNA samples were mixed with 0.33 volume of tracking dye containing bromophenol blue (0.25%) and glycerol (30%) in water. After staining in ethidium bromide solution (2 μg/ml) for 1 hour, the gel was washed with water and pictures were taken with Polaroid 3000ISO type 667 film. The relative quantities of the supercoiled, nicked, and linear DNA were calculated by integrating the “area” of each spot by the image analyzer software Total/Lab (Nonlinear Dynamics Ltd., UK). The amount of supercoiled DNA was multiplied by factor of 1.4 to account for reduced ethidium bromide intercalation into supercoiled DNA. pH titration by ^1H-NMR. pH* of compound 8 (3 mM) solution in D2O containing 0.05 wt % 3-(trimethylsilyl)propionic-2,2,3,3-d4 acid, sodium salt (TSP-d4) was adjusted with 10 wt % DCI and NaOD in D2O at 25° C. under argon purged condition. Spectrometric determinations of pKa. pH of 10 μM of compound solution in H2O was adjusted with 10, 100 mM HCl (aq) and NaOH (aq) solution under argon purged condition. Excitation wavelength was 330 nm and polymethacrylate fluorimeter cuvettes were used. Absorbance and fluorescence titration with DNA. The concentrations of calf thymus DNA stock solution was determined spectophotometrically using the following molar absorptovity values: 1.32×10^4 M^−1 cm^−1 (per base pair) at 260 nm. All experiments were done in 20 mM sodium phosphate buffer at 25° C. and polymethacrylate fluorimeter cuvettes were used. The same amount of DNA was added to both sample and reference cuvettes during UV/Vis titration. Determination of excited state lifetimes. The concentration of compound solution was 10 μM in 20 mM sodium phosphate buffer. The photoluminescence lifetime measurements were conducted by exciting the samples with the output of a Nd:VO—4 (Spectra-Physics Vanguard, 2 W, 532 nm, 76 MHz, 10 ps) pumped R6G dye laser (Coherent 702-1). The output of the dye laser (600 nm, Rhodamine 6G) was cavity dumped at 1.9 MHz and frequency doubled using a BBO crystal to excite the fluorophore (the excitation wavelength used was 290 nm). Samples were excited with <1 mW power and the emission was collected at right angles onto a Chromex S3 500 is 0.5 m imaging monochromator with a 50 g/mm grating and 0.5 nm resolution. Output of the monochromator is focused into a Hamamatsu C5680 streak camera operating at a 20 ns window for the fluorophore. Intensity analysis was carried out by integrating the spectral profile in time on the streak camera. Lifetime analysis over 6-7 lifetimes of the fluorophore was conducted by binning the photoluminescence intensity collected on the streak camera over a 20 nm spectral window at the centroid value of the emission of the fluorophore. Ethidium bromide displacement. […]

The next data set relates to UMRC6 cells. Description: RCC cell proliferation assay, UMRC6. The data set is classed as cell-based. The conditions noted are these: Homo sapiens, UMRC6, UV 350 nm 10 minutes, 72 hours. As to the method: FIG. 23 provides the results of cell proliferation assays using three different RCC cell lines: (a) UMRC3, (b) UMRC6 and (c) 786-O, and compounds I-5; RCC cells were resuspended in media and treated with UV radiation (350 nm) for 10 minutes with and without indicated compounds; control cells were exposed to the indicated compound 1-5 at final concentration of 10 μM; cell numbers determined after 72 hours as described in the SI Section;
The ability of compounds 1-5 to inhibit cell proliferation in three human clear cell renal cell carcinoma (RCC) cell lines was tested in the dark and under photoactivation (FIG. 23). No difference was detected in the control experiments between cells not exposed to UV versus those that were exposed to UV at 350 nm for 10 minutes in any of the three RCC cell lines tested (FIG. 23 A, B & C; first two columns).

Data set [1] is described as follows: UV-absorption titration determination of pKa. The conditions noted are these: absorption. It counts as physicochemical. As to the method: General information. ^1H, ^13C and ^19F NMR were collected on a Varian Gemini 300 MHz NMR spectrometer and a Bruker 300 MHz NMR spectrometer. Mass spectrometry data was collected on a Jeol JMS-600H. UV spectra were recorded on a Shimadzu UV-2100. Fluorescence spectra were obtained with SPEX FluoMax spectrofluorimeter using right-angle geometry. pH was adjusted with AB 15 plus pH meter (Accument) after standardization at 25° C. All buffers were prepared and pH-adjusted at room temperature (25° C.). Plasmid DNA Photocleavage. pBR322 plasmid DNA (4,361 b/p; from BioLabs Inc., 1 μg/μL solution in 10 mM Tris-HCl (pH 8.0), and 1 mM EDTA buffer) was diluted to a concentration of 0.01 μg/μL. The solution containing cleavage agent, DNA (30 μM/bp) in 20 mM sodium phosphate buffer was incubated for 1 hour at 30° C. Samples were placed on ice at a distance of 20 cm from 200 W Hg—Xe lamp (Spectra-Physics, Laser & Photonics Oriel Instruments with long pass filter with 324 nm cut-off wavelength). Electrophoretic Analysis. The gel electrophoresis was carried out in 1×TBE buffer at 80 V using Miligel FisherBiotech Horizontal Electrophoresis System. All gels were run on 1% agarose slab gels. Before loading, the DNA samples were mixed with 0.33 volume of tracking dye containing bromophenol blue (0.25%) and glycerol (30%) in water. After staining in ethidium bromide solution (2 μg/ml) for 1 hour, the gel was washed with water and pictures were taken with Polaroid 3000ISO type 667 film. The relative quantities of the supercoiled, nicked, and linear DNA were calculated by integrating the “area” of each spot by the image analyzer software Total/Lab (Nonlinear Dynamics Ltd., UK). The amount of supercoiled DNA was multiplied by factor of 1.4 to account for reduced ethidium bromide intercalation into supercoiled DNA. pH titration by ^1H-NMR. pH* of compound 8 (3 mM) solution in D2O containing 0.05 wt % 3-(trimethylsilyl)propionic-2,2,3,3-d4 acid, sodium salt (TSP-d4) was adjusted with 10 wt % DCI and NaOD in D2O at 25° C. under argon purged condition. Spectrometric determinations of pKa. pH of 10 μM of compound solution in H2O was adjusted with 10, 100 mM HCl (aq) and NaOH (aq) solution under argon purged condition. Excitation wavelength was 330 nm and polymethacrylate fluorimeter cuvettes were used. Absorbance and fluorescence titration with DNA. The concentrations of calf thymus DNA stock solution was determined spectophotometrically using the following molar absorptovity values: 1.32×10^4 M^−1 cm^−1 (per base pair) at 260 nm. All experiments were done in 20 mM sodium phosphate buffer at 25° C. and polymethacrylate fluorimeter cuvettes were used. The same amount of DNA was added to both sample and reference cuvettes during UV/Vis titration. Determination of excited state lifetimes. The concentration of compound solution was 10 μM in 20 mM sodium phosphate buffer. The photoluminescence lifetime measurements were conducted by exciting the samples with the output of a Nd:VO—4 (Spectra-Physics Vanguard, 2 W, 532 nm, 76 MHz, 10 ps) pumped R6G dye laser (Coherent 702-1). The output of the dye laser (600 nm, Rhodamine 6G) was cavity dumped at 1.9 MHz and frequency doubled using a BBO crystal to excite the fluorophore (the excitation wavelength used was 290 nm). Samples were excited with <1 mW power and the emission was collected at right angles onto a Chromex S3 500 is 0.5 m imaging monochromator with a 50 g/mm grating and 0.5 nm resolution. […]

In the case of `Cl.Cl.NCCCC[C@H](N)C(=O)Nc1ccc(C#Cc2c(F)c(F)nc(F)c2F)cc1` [Compound 4, (S)-2,6-Diamino-hexanoic acid [4-(2,3,5,6-tetrafluoro-pyridin-4-ylethynyl)-phenyl]-amide dihydrochloride], the ds cleavage in the data set with pBR322 plasmid DNA (higher concentrations of 4) is not above 50%. Further, the “decrease of total DNA cleavage activity on increasing phosphate buffer from 10 mM to 50 mM” value in the data set on pBR322 plasmid DNA (pH 5.5, 10 μM) stood at 48%; in the data set on pBR322 plasmid DNA (pH 7, 10 μM) it was 40%; in the data set on pBR322 plasmid DNA (pH 8, 10 μM) it was 34%. Besides, in the data set on pBR322 plasmid DNA (pH 6, 10 μM), the “irradiation time until plasmid DNA is completely consumed” value was not above 5 min. Besides, the “protection of DNA from damage by hydroxyl radical/singlet oxygen scavengers” value in the data set with pBR322 plasmid DNA (pH 6, 10 mM scavenger, 5 min irradiation) was “neither of the additives is able to protect DNA”. Further, in the data set with pBR322 plasmid DNA (pH 6, 3 minutes of irradiation, 15 μM, 30 μM/bp DNA), the “intact DNA (Form I) remained” value is 16%. For the same molecule, the “unreacted DNA (Form I)” value in the data set on pBR322 plasmid DNA (pH 7, 3 minutes of irradiation, 15 μM, 30 μM/bp DNA) was determined as 60%; with pBR322 plasmid DNA (pH 8, 3 minutes of irradiation, 15 μM, 30 μM/bp DNA) it was 86%. Also, the DNA remains unreacted in the data set with pBR322 plasmid DNA (pH 8, after an hour of irradiation, 10 μM) was approximately 60%. In the data set with UMRC6 cells, this molecule had a mortality at 10 µM of 90%. The pKa1 in data set [1] (α-amino group (4, 6), ε-amino group (7)) is given as 6.9. The pKa2 result in data set [1] (ε-amino group) is “-/9.5”.

Broadly, the mortality is the percentage killed. The low end stands for more survivors, the high end for fewer survivors.
